Measured values as given in PubChem BioAssay AID330 (DTP/NCI, 2004).
“And” between values parts separate entries of the source, which are not always exact repeats. Identical values can stand only once. Inconclusive results and toxic doses are left out. How the source made its calls: active means survival T/C of 150% or more; inactive means T/C below 125% in these data.

System: P388 leukemia ip, CD2F1 mice, survival T/C
Experiment: NCI In Vivo Anticancer Drug Screen. Data for tumor model P388 Leukemia (intraperitoneal) in CD2F1 (CDF1) mice
Conditions: endpoint: median survival time, higher = longer survival
How it was run: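 Mice carrying the transplanted tumor received test compound or vehicle. Survival was recorded in each group, and the value is the treated-group measurement divided by that of the vehicle-treated control group.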

[1] = dose: 5.0 mg/kg/injection, schedule: Q01DX009 (ip), vehicle: saline + alcohol
[2] = dose: 10.0 mg/kg/injection, schedule: Q01DX009 (ip), vehicle: saline + alcohol
[3] = dose: 20.0 mg/kg/injection, schedule: Q01DX009 (ip), vehicle: saline + alcohol
[4] = dose: 50.0 mg/kg/injection, schedule: Q01DX009 (ip), vehicle: Klucel (hydroxypropylcellulose) (HPC)
[5] = dose: 100.0 mg/kg/injection, schedule: Q01DX009 (ip), vehicle: Klucel (hydroxypropylcellulose) (HPC)
[6] = dose: 200.0 mg/kg/injection, schedule: Q01DX009 (ip), vehicle: Klucel (hydroxypropylcellulose) (HPC)
[7] = dose: 12.5 mg/kg/injection, schedule: Q01DX009 (ip), vehicle: saline with Tween-80
[8] = dose: 50.0 mg/kg/injection, schedule: Q01DX009 (ip), vehicle: saline with Tween-80
[9] = dose: 100.0 mg/kg/injection, schedule: Q01DX009 (ip), vehicle: saline with Tween-80
[10] = dose: 60.0 mg/kg/injection, schedule: Q01DX005 (ip), vehicle: saline with Tween-80
[11] = dose: 120.0 mg/kg/injection, schedule: Q01DX005 (ip), vehicle: saline with Tween-80
[12] = dose: 240.0 mg/kg/injection, schedule: Q01DX005 (ip), vehicle: saline with Tween-80
[13] = dose: 60.0 mg/kg/injection, schedule: Q01DX005 (ip), vehicle: Klucel (hydroxypropylcellulose) (HPC)
[14] = dose: 200.0 mg/kg/injection, schedule: Q01DX009 (ip), vehicle: saline with Tween-80
[15] = dose: 120.0 mg/kg/injection, schedule: Q01DX005 (ip), vehicle: Klucel (hydroxypropylcellulose) (HPC)
[16] = dose: 240.0 mg/kg/injection, schedule: Q01DX005 (ip), vehicle: Klucel (hydroxypropylcellulose) (HPC)
[17] = dose: 12.5 mg/kg/injection, schedule: Q01DX005 (ip), vehicle: saline with Tween-80
[18] = dose: 25.0 mg/kg/injection, schedule: Q01DX005 (ip), vehicle: saline with Tween-80
[19] = dose: 50.0 mg/kg/injection, schedule: Q01DX005 (ip), vehicle: saline with Tween-80
[20] = dose: 100.0 mg/kg/injection, schedule: Q01DX005 (ip), vehicle: saline with Tween-80

Measured: T/C

COC(=O)C1CCC2C(C1)OC1(CC(OC(=O)/C=C/c3ccccc3)C(C)CO1)C21CO1 (stereo not drawn)
inactive: dose: 3.0 mg/kg/injection, schedule: Q01DX005 (ip), vehicle: saline + alcohol 100 % of control | [1] 95 % of control | dose: 6.0 mg/kg/injection, schedule: Q01DX005 (ip), vehicle: saline + alcohol 97 % of control | [2] 106 % of control | dose: 12.0 mg/kg/injection, schedule: Q01DX005 (ip), vehicle: saline + alcohol 97 % of control | [3] 103 % of control | dose: 24.0 mg/kg/injection, schedule: Q01DX005 (ip), vehicle: saline + alcohol 99 % of control | dose: 40.0 mg/kg/injection, schedule: Q01DX009 (ip), vehicle: saline + alcohol 103 % of control

CCCCCCCCC(=O)OCCN(CCOC(=O)CCCCCCCC)C(=O)COC(=O)CCCCCCCC
inactive: [4] 102 % of control | [5] 113 % of control | [6] 93 % of control

CC(=C\C=N\N(C)c1ccccc1)/C=C1\Cc2ccccc2C1=O
inactive: dose: 100.0 mg/kg/injection, schedule: Q04DX003 (ip), vehicle: Klucel (hydroxypropylcellulose) (HPC) 99 % of control | dose: 200.0 mg/kg/injection, schedule: Q04DX003 (ip), vehicle: Klucel (hydroxypropylcellulose) (HPC) 97 % of control | dose: 400.0 mg/kg/injection, schedule: Q04DX003 (ip), vehicle: Klucel (hydroxypropylcellulose) (HPC) 96 % of control

Cc1ccc(S(=O)(=O)CCC(=O)c2ccccc2)cc1
inactive: dose: 100.0 mg/kg/injection, schedule: Q04DX003 (ip), vehicle: saline 104 % of control | dose: 200.0 mg/kg/injection, schedule: Q04DX003 (ip), vehicle: saline 100 % of control | dose: 400.0 mg/kg/injection, schedule: Q04DX003 (ip), vehicle: saline 101 % of control

O=S(c1ccccc1)c1ccccc1C(O)(C(F)(F)F)C(F)(F)F (stereo not drawn)
inactive: dose: 100.0 mg/kg/injection, schedule: Q04DX002 (ip), vehicle: Klucel (hydroxypropylcellulose) (HPC) 96 % of control | dose: 200.0 mg/kg/injection, schedule: Q04DX002 (ip), vehicle: Klucel (hydroxypropylcellulose) (HPC) 100 % of control | dose: 400.0 mg/kg/injection, schedule: Q04DX002 (ip), vehicle: Klucel (hydroxypropylcellulose) (HPC) 101 % of control

C1CN(SSN2CCOCC2)CCO1
inactive: [7] 113 % of control | dose: 25.0 mg/kg/injection, schedule: Q01DX009 (ip), vehicle: saline with Tween-80 104 % of control | [8] 100 % of control | [9] 100 % of control

Cc1nc(Nc2ccccc2)c(C#N)c(=O)[nH]1
inactive: [10] 86 % of control | [11] 86 % of control | [12] 86 % of control

COc1cccc2c1C(=O)c1c(O)c3c(c(O)c1C2=O)C[C@@](O)(/C(C)=N/NC(N)=S)C[C@@H]3OC1CC(N)C(O)C(C)O1 (stereo partly drawn)
active: dose: 200.0 mg/kg/injection, schedule: Q04DX003 (ip), vehicle: water 155 % of control
inactive: dose: 3.13 mg/kg/injection, schedule: Q04DX003 (ip), vehicle: water 108 % of control | dose: 6.25 mg/kg/injection, schedule: Q04DX003 (ip), vehicle: water 109 % of control | dose: 12.5 mg/kg/injection, schedule: Q04DX003 (ip), vehicle: water 112 % of control and 117 % of control | dose: 25.0 mg/kg/injection, schedule: Q04DX003 (ip), vehicle: water 117 % of control and 123 % of control | dose: 50.0 mg/kg/injection, schedule: Q04DX003 (ip), vehicle: water 117 % of control and 122 % of control

COc1ccc(CCN2CCC(CC3CCCCN3)CC2)cc1OC (stereo not drawn)
inactive: dose: 12.5 mg/kg/injection, schedule: Q01DX009 (ip), vehicle: distilled water + alcohol 103 % of control | dose: 25.0 mg/kg/injection, schedule: Q01DX009 (ip), vehicle: distilled water + alcohol 112 % of control | dose: 50.0 mg/kg/injection, schedule: Q01DX009 (ip), vehicle: distilled water + alcohol 105 % of control | dose: 100.0 mg/kg/injection, schedule: Q01DX009 (ip), vehicle: distilled water + alcohol 103 % of control

CC1=CC(=O)C(O)C2(C)C1CC1OC(=O)C=C3C(C)(C4OC(=O)CC4CO)CC(O)C2C31C (stereo not drawn)
inactive: dose: 2.5 mg/kg/injection, schedule: Q01DX009 (ip), vehicle: saline + alcohol 92 % of control | [1] 98 % of control | [2] 108 % of control | [3] 101 % of control

CCOC(=O)C1=C(O)C(=O)NC1c1ccccc1 (stereo not drawn)
inactive: dose: 15.0 mg/kg/injection, schedule: Q01DX005 (ip), vehicle: Klucel (hydroxypropylcellulose) (HPC) 111 % of control | dose: 30.0 mg/kg/injection, schedule: Q01DX005 (ip), vehicle: Klucel (hydroxypropylcellulose) (HPC) 102 % of control | [13] 102 % of control and 107 % of control

O=C1N/C(=C\c2nc3ccccc3s2)c2ccccc21
inactive: [8] 96 % of control | [9] 90 % of control | [14] 89 % of control

O=S(=O)(C1=C[C@H](O)C[C@@H]1O)c1ccccc1
inactive: [13] 98 % of control | [15] 107 % of control | [16] 100 % of control

COc1ccc(N2C(=O)C(C)SC23C(=O)Nc2ccccc23)cc1 (stereo not drawn)
inactive: [10] 99 % of control | [11] 100 % of control | [12] 98 % of control

COc1ccc(C(=O)C(=O)c2ccc(OC)cc2)cc1
inactive: [13] 99 % of control | [15] 98 % of control | [16] 100 % of control

CCCC/C=C(\C#N)SCC
inactive: dose: 37.5 mg/kg/injection, schedule: Q01DX009 (ip), vehicle: saline with Tween-80 100 % of control and 112 % of control and 118 % of control | dose: 75.0 mg/kg/injection, schedule: Q01DX009 (ip), vehicle: saline with Tween-80 105 % of control and 114 % of control and 119 % of control | dose: 150.0 mg/kg/injection, schedule: Q01DX009 (ip), vehicle: saline with Tween-80 106 % of control and 123 % of control | dose: 300.0 mg/kg/injection, schedule: Q01DX009 (ip), vehicle: saline with Tween-80 104 % of control

CC(N)S(=O)(=O)O (stereo not drawn)
inactive: dose: 50.0 mg/kg/injection, schedule: Q01DX009 (ip), vehicle: saline 104 % of control | dose: 100.0 mg/kg/injection, schedule: Q01DX009 (ip), vehicle: saline 98 % of control | dose: 200.0 mg/kg/injection, schedule: Q01DX009 (ip), vehicle: saline 104 % of control | dose: 400.0 mg/kg/injection, schedule: Q01DX009 (ip), vehicle: saline 88 % of control

COC(=O)c1ccccc1NC(c1ccccn1)c1ccc2cccnc2c1O (stereo not drawn)
inactive: dose: 50.0 mg/kg/injection, schedule: Q01DX009 (ip), vehicle: DMSO 111 % of control | [4] 109 % of control | dose: 100.0 mg/kg/injection, schedule: Q01DX009 (ip), vehicle: DMSO 116 % of control | [5] 94 % of control | [6] 106 % of control | dose: 400.0 mg/kg/injection, schedule: Q01DX009 (ip), vehicle: Klucel (hydroxypropylcellulose) (HPC) 100 % of control

CN(C)C(=S)n1c(=S)nc(N(C)C)sc1=S
inactive: [17] 103 % of control | [18] 108 % of control | [19] 108 % of control and 113 % of control | [20] 109 % of control

O=C1C2CC=CCC2C(=O)N1SC(Cl)(Cl)Cl (stereo not drawn)
inactive: dose: 3.13 mg/kg/injection, schedule: Q01DX009 (ip), vehicle: saline with Tween-80 121 % of control | dose: 6.25 mg/kg/injection, schedule: Q01DX009 (ip), vehicle: saline with Tween-80 121 % of control | [7] 120 % of control

CCOC(=O)c1sc(=S)n(C)c1C
inactive: [17] 100 % of control | [18] 103 % of control | [19] 102 % of control and 104 % of control

CCOC(=O)/C=C/C(=O)NNS(=O)(=O)CC(N)C(=O)O (stereo not drawn)
inactive: dose: 100.0 mg/kg/injection, schedule: Q04DX003 (ip), vehicle: acid diluted with saline 105 % of control | dose: 200.0 mg/kg/injection, schedule: Q04DX003 (ip), vehicle: acid diluted with saline 109 % of control

ON1c2ccccc2-c2ccccc2C1(c1ccccc1)c1ccccc1
inactive: [19] 94 % of control | [20] 99 % of control | dose: 200.0 mg/kg/injection, schedule: Q01DX005 (ip), vehicle: saline with Tween-80 90 % of control

N#C/C(=C1/NC(=O)c2ccccc21)c1nc2ccccc2s1
inactive: [8] 89 % of control | [9] 90 % of control | [14] 96 % of control
